Measured values: US20070128217A1 (priority 2003, published 2007)

Assays:
[1] = tested on: rabbit serum obtained by immunizing a rabbit with the SARS-CoV strain Frankfurt 1; type: binding; design: Binding of a rabbit serum to linear peptides / Binding of a rabbit serum to looped peptides / Rabbit serum linear peptides / Rabbit serum looped peptides / Binding of a rabbit serum to linear peptides of protein N of SARS-CoV Urbani (Rabbit serum linear peptides) / Binding of a rabbit serum to looped/cyclic peptides of protein N of SARS-CoV Urbani (Rabbit serum looped peptides): unit not given here
[2] = tested on: antibodies in sera from SARS patients (sera 1a, 1b, 2, 6, 37, 62, London, SARS-yellow, SARS-green); type: binding, human; design: Binding of serum 6 to linear peptides of protein X1 of SARS-CoV Urbani / Binding of serum 37 to linear peptides of protein X1 of SARS-CoV Urbani / Binding of serum 6 to looped/cyclic peptide (PEPSCAN-ELISA) / Binding of serum 37 to looped/cyclic peptide (PEPSCAN-ELISA) / Binding of serum 37 to looped/cyclic peptides of protein X1 of SARS-CoV Urbani / Binding of serum 6 to linear peptides of protein X2 / Binding of serum 37 to linear peptides of protein X2 / Binding of serum 37 to looped/cyclic peptides of protein X2 of SARS-CoV Urbani / Binding of serum 6 to linear peptides of protein M of SARS-CoV Urbani / Binding of serum 37 to linear peptides of protein M of SARS-CoV Urbani / Binding of serum 6 to looped/cyclic peptides of protein M of SARS-CoV Urbani / Binding of serum 37 to looped/cyclic peptides of protein M of SARS-CoV Urbani / Binding of serum 6 to linear peptides of protein X3 of SARS-CoV Urbani / Binding of serum 37 to linear peptides of protein X3 of SARS-CoV Urbani / Binding of serum 37 to looped/cyclic peptides of protein X3 of SARS-CoV Urbani / Binding of serum 6 to linear peptides of protein X4 of SARS-CoV Urbani / Binding of serum 37 to linear peptides of protein X4 of SARS-CoV Urbani / Binding of serum 37 to looped/cyclic peptides of protein X4 of SARS-CoV Urbani / Binding of serum 6 to linear peptides of protein X5 of SARS-CoV Urbani / Binding of serum 37 to linear peptides of protein X5 of SARS-CoV Urbani / Binding of serum 37 to looped/cyclic peptides of protein X5 of SARS-CoV Urbani / Binding of serum 6 to linear peptides of protein N of SARS-CoV Urbani / Binding of serum 37 to linear peptides of protein N of SARS-CoV Urbani / Binding of serum 6 to linear peptide (PEPSCAN-ELISA) / Binding of serum 1a to looped/cyclic peptides of protein N of SARS-CoV Urbani / Binding of serum 1b to looped/cyclic peptides of protein N of SARS-CoV Urbani / Binding of serum 2 to looped/cyclic peptides of protein N of SARS-CoV Urbani / Binding of serum 6 to looped/cyclic peptides of protein N of SARS-CoV Urbani / Binding of serum 37 to looped/cyclic peptides of protein N of SARS-CoV Urbani / Binding of serum 62 to looped/cyclic peptides of protein N of SARS-CoV Urbani / Binding of serum London to looped/cyclic peptides of protein N of SARS-CoV Urbani / Binding of serum SARS-green to looped/cyclic peptides of protein N of SARS-CoV Urbani: unit not given here

Row | Sequence | Recognition of the peptide by the rabbit serum [1] | Binding of serum 1a to linear peptides of protein X1 of SARS-CoV Urbani [2] | Binding of serum 1a to looped/cyclic peptide (PEPSCAN-ELISA) [2] | Binding of serum 1b to linear peptides of protein X1 of SARS-CoV Urbani [2] | Binding of serum 1b to looped/cyclic peptide (PEPSCAN-ELISA) [2] | Binding of serum 2 to linear peptides of protein X1 of SARS-CoV Urbani [2] | Binding of serum 2 to looped/cyclic peptide (PEPSCAN-ELISA) [2] | Binding of serum 6 to linear peptides of protein X1 of SARS-CoV Urbani [2] | Binding of serum 6 to looped/cyclic peptide (PEPSCAN-ELISA) [2] | Binding of serum 37 to linear peptides of protein X1 of SARS-CoV Urbani [2] | Binding of serum 37 to looped/cyclic peptide (PEPSCAN-ELISA) [2] | Binding of serum 62 to linear peptides of protein X1 of SARS-CoV Urbani [2] | Binding of serum 62 to looped/cyclic peptide (PEPSCAN-ELISA) [2] | Binding of serum London to linear peptides of protein X1 of SARS-CoV Urbani [2] | Binding of serum London to looped/cyclic peptide (PEPSCAN-ELISA) [2] | Binding of serum SARS-green to linear peptides of protein X1 of SARS-CoV Urbani [2] | Binding of serum SARS-green to looped/cyclic peptide (PEPSCAN-ELISA) [2] | Binding of serum SARS-yellow to linear peptides of protein X1 of SARS-CoV Urbani [2] | Binding of serum SARS-yellow to looped/cyclic peptide (PEPSCAN-ELISA) [2] | Binding of a rabbit serum to linear peptides [1] | other results
1 | SATKIIALNKRWQLA | recognized | 0.8 | 1.2 | 0.6 | 0.8 | 0.6 | 1.2 | 0.7 | 0.9 | 0.7 | 1.0 | 0.8 | 1.5 | 0.4 | 0.5 | 0.3 | 1.0 | 0.5 | 0.9 | – | –
2 | LLIQQWIQFMMSRRR | – | – | – | – | – | – | – | – | – | – | – | – | – | – | – | – | – | – | – | 0.5 | Binding of a rabbit serum to looped peptides [1]: 0.6; Binding of serum 1a to linear peptides of protein X2 [2]: 0.7; Binding of serum 1a to looped/cyclic peptides of protein X2 of SARS-CoV Urbani [2]: 0.5; Binding of serum 1b to linear peptides of protein X2 [2]: 0.5; Binding of serum 1b to looped/cyclic peptides of protein X2 of SARS-CoV Urbani [2]: 0.5; Binding of serum 2 to linear peptides of protein X2 [2]: 0.5; Binding of serum 2 to looped/cyclic peptides of protein X2 of SARS-CoV Urbani [2]: 0.7; Binding of serum 6 to linear peptides of protein X2 [2]: 0.5; Binding of serum 6 to looped/cyclic peptides of protein X2 of SARS-CoV Urbani [2]: 0.3; Binding of serum 37 to linear peptides of protein X2 [2]: 0.6; Binding of serum 37 to looped/cyclic peptides of protein X2 of SARS-CoV Urbani [2]: 0.5; Binding of serum 62 to linear peptides of protein X2 [2]: 0.6; Binding of serum 62 to looped/cyclic peptides of protein X2 of SARS-CoV Urbani [2]: 0.7; Binding of serum London to linear peptides of protein X2 [2]: 0.4; Binding of serum London to looped/cyclic peptides of protein X2 of SARS-CoV Urbani [2]: 0.2; Binding of serum SARS-green to linear peptides of protein X2 [2]: 0.5; Binding of serum SARS-green to looped/cyclic peptides of protein X2 of SARS-CoV Urbani [2]: 0.3; Binding of serum SARS-yellow to linear peptides of protein X2 [2]: 0.8; Binding of serum SARS-yellow to looped/cyclic peptides of protein X2 of SARS-CoV Urbani [2]: 0.4
3 | QSATKIIALNKRWQL | recognized | 0.8 | 0.4 | 0.7 | 0.4 | 0.7 | 0.5 | 0.7 | 0.6 | 0.7 | 0.6 | 0.8 | 0.6 | 0.4 | 0.4 | 0.4 | 0.4 | 0.5 | 0.4 | – | –
4 | WQLALYKGFQFICNL | – | 0.6 | 0.6 | 0.2 | 0.3 | 0.4 | 0.4 | 0.5 | 1.3 | 0.3 | 0.5 | 0.4 | 0.5 | 0.2 | 1.5 | 0.3 | 0.3 | 0.4 | 0.5 | 0.5 | Binding of a rabbit serum to looped peptides [1]: 0.6
5 | TKIIALNKRWQLALY | recognized | 0.7 | 0.6 | 0.5 | 0.4 | 0.6 | 0.5 | 1.0 | 0.5 | 0.7 | 0.6 | 0.7 | 0.6 | 0.3 | 0.3 | 0.2 | 0.3 | 0.5 | 0.5 | – | –
6 | ITVEELKQLLEQWNL | recognized | – | – | – | – | – | – | – | – | – | – | – | – | – | – | – | – | – | – | – | –
7 | GAVIIRGHLRMAGHP | – | – | – | – | – | – | – | – | – | – | – | – | – | – | – | – | – | – | – | – | Rabbit serum linear peptides [1]: 0.8; Rabbit serum looped peptides [1]: 0.5
8 | IANACIVGLMWLSYF | – | – | – | – | – | – | – | – | – | – | – | – | – | – | – | – | – | – | – | – | Rabbit serum linear peptides [1]: 0.1; Rabbit serum looped peptides [1]: 0.0
9 | DNASPASTVHATATI | – | – | – | – | – | – | – | – | – | – | – | – | – | – | – | – | – | – | – | 0.7 | Binding of a rabbit serum to looped peptides [1]: 0.3
10 | RCWYLHEGHQTAAFR | – | – | – | – | – | – | – | – | – | – | – | – | – | – | – | – | – | – | – | – | Rabbit serum linear peptides [1]: 0.9; Rabbit serum looped peptides [1]: 0.4
